Results from PubChem BioAssay (NCI).
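Results reflect a 48-hour exposure of cells in 96-well plates to compound at five concentrations. GI50 is the concentration that inhibits growth by half. Definition used: TGI = concentration required for complete inhibition of growth.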

Legend:
Assay in all cases: growth of human tumour cells (NCI), 48 h
[1] = test system: HS 578T breast
[2] = test system: MDA-MB-435
[3] = test system: OVCAR-5 ovarian
[4] = test system: RPMI-8226 leukemia
[5] = test system: OVCAR-8 ovarian
[6] = test system: M14 melanoma
[7] = test system: HOP-62 NSCLC
[8] = test system: NCI/ADR-RES ovarian
[9] = test system: NCI-H226 lung
[10] = test system: KM12 colon
[11] = test system: 786-0 renal
[12] = test system: SN12C renal
[13] = test system: SR leukemia
[14] = test system: HT29 colon
[15] = test system: HOP-92 NSCLC
[16] = test system: A549 NSCLC
[17] = test system: SNB-19 CNS
[18] = test system: EKVX NSCLC
[19] = test system: BT-549 breast
[20] = test system: IGROV1 ovarian
[21] = test system: HCT-116 colon
[22] = test system: MOLT-4 leukemia
[23] = test system: CAKI-1 renal
[24] = test system: T-47D breast
[25] = test system: MCF7 breast
[26] = test system: CCRF-CEM leukemia
[27] = test system: SK-MEL-28 melanoma
[28] = test system: SNB-75 CNS
[29] = test system: NCI-H23 lung
[30] = test system: NCI-H522 lung
[31] = test system: NCI-H460 lung
[32] = test system: HCT-15 colon
[33] = test system: PC-3 prostate
[34] = test system: DU-145 prostate
[35] = test system: OVCAR-4 ovarian
[36] = test system: UACC-62 melanoma
[37] = test system: SK-OV-3 ovarian
[38] = test system: OVCAR-3 ovarian
[39] = test system: K-562 leukemia
[40] = test system: LOX IMVI melanoma
[41] = test system: UACC-257 melanoma
[42] = test system: SF-539 CNS
[43] = test system: U251 CNS
[44] = test system: SW-620 colon
[45] = test system: COLO 205 colon
[46] = test system: UO-31 renal
[47] = test system: MALME-3M melanoma
[48] = test system: ACHN renal
[49] = test system: SF-268 CNS
[50] = test system: HL-60(TB) leukemia
[51] = test system: MDA-MB-231 breast
[52] = test system: SF-295 CNS
[53] = test system: SK-MEL-5 melanoma
[54] = test system: A498 renal
[55] = test system: TK-10 renal
[56] = test system: HCC-2998 colon
[57] = test system: RXF 393 renal
[58] = test system: SK-MEL-2 melanoma

## COc1cc(N2CCN(C(C)C)CC2)ccc1Nc1nc(Nc2cccc3ncccc23)c2cc[nH]c2n1
[1]
  GI50: 5.42 µM
  TGI: 24.3 µM
[2]
  GI50: 5.47 µM
  TGI: > 25 µM
[3]
  GI50: 2.5 µM
  TGI: > 25 µM
[4]
  GI50: 5.68 µM
  TGI: 17.8 µM
[5]
  GI50: 5.86 µM
  TGI: > 22.7 µM
[6]
  GI50: 4.13 µM
  TGI: 8.04 µM
[7]
  GI50: 3.18 µM
  TGI: > 14.9 µM
[8]
  GI50: 8.45 µM
  TGI: > 25 µM
[9]
  GI50: 4.82 µM
  TGI: > 25 µM
[10]
  GI50: 5.56 µM
  TGI: > 25 µM
[11]
  GI50: 5.27 µM
  TGI: 12.4 µM
[12]
  GI50: 15.7 µM
  TGI: > 25 µM
[13]
  GI50: 1.14 µM
  TGI: > 11.1 µM
[14]
  GI50: 1.5 µM
  TGI: 5.54 µM
[15]
  GI50: 0.464 µM
  TGI: 2.85 µM
[16]
  GI50: 2.92 µM
  TGI: 15.6 µM
[17]
  GI50: 8.99 µM
  TGI: > 25 µM
[18]
  GI50: 8.83 µM
  TGI: > 25 µM
[19]
  GI50: 4.75 µM
  TGI: 13.6 µM
[20]
  GI50: 12.1 µM
  TGI: > 25 µM
[21]
  GI50: 3.04 µM
  TGI: 7.11 µM
[22]
  GI50: 7.51 µM
  TGI: > 23.2 µM
[23]
  GI50: 10 µM
  TGI: > 25 µM
[24]
  GI50: 3.8 µM
  TGI: 13.6 µM
[25]
  GI50: 1.3 µM
  TGI: > 25 µM
[26]
  GI50: 6.36 µM
  TGI: > 22.4 µM
[27]
  GI50: 4.77 µM
  TGI: 9.56 µM
[28]
  GI50: 3.99 µM
  TGI: > 15.4 µM
[29]
  GI50: 5.7 µM
  TGI: > 25 µM
[30]
  GI50: 3.97 µM
  TGI: 9.05 µM
[31]
  GI50: 6.16 µM
  TGI: > 23.5 µM
[32]
  GI50: 4.35 µM
  TGI: > 21.6 µM
[33]
  GI50: 8.99 µM
  TGI: > 25 µM
[34]
  GI50: 6.55 µM
  TGI: 24.6 µM
[35]
  GI50: 7.54 µM
  TGI: > 25 µM
[36]
  GI50: 4.06 µM
  TGI: 8.53 µM
[37]
  GI50: 5.58 µM
  TGI: 19.1 µM
[38]
  GI50: 4.75 µM
  TGI: 10.6 µM
[39]
  GI50: 5.34 µM
  TGI: 18.4 µM
[40]
  GI50: 3.3 µM
  TGI: 6.95 µM
[41]
  GI50: 3.67 µM
  TGI: 8.14 µM
[42]
  GI50: 3.94 µM
  TGI: 8.15 µM
[43]
  GI50: 4.54 µM
  TGI: 15.1 µM
[44]
  GI50: 3.6 µM
  TGI: 14.9 µM
[45]
  GI50: 1.38 µM
  TGI: 5.96 µM
[46]
  GI50: 3.79 µM
  TGI: 11.6 µM
[47]
  GI50: 4.52 µM
  TGI: 9.64 µM
[48]
  GI50: 7.45 µM
  TGI: > 25 µM
[49]
  GI50: 5.21 µM
  TGI: 15.4 µM
[50]
  GI50: 3.26 µM
  TGI: 14.8 µM
[51]
  GI50: 4.37 µM
  TGI: 11 µM
[52]
  GI50: 5.46 µM
  TGI: 17.9 µM
[53]
  GI50: 3.41 µM
  TGI: 6.66 µM
[54]
  GI50: 0.811 µM
  TGI: 12 µM
[55]
  GI50: 3.97 µM
  TGI: 19.4 µM
[56]
  GI50: 3.17 µM
  TGI: 9.77 µM
[57]
  GI50: 3.93 µM
  TGI: 9.38 µM
[58]
  GI50: 4.63 µM
  TGI: 11.5 µM

## COc1cccc(C(=O)Nc2ccc(CN3CCc4nc5cc(OC)c(OC)cc5cc43)cc2)c1
[1]
  GI50: 3.87 µM
  TGI: 34 µM
[2]
  GI50: 3.47 µM
  TGI: 19.3 µM
[3]
  GI50: 12.9 µM
  TGI: > 100 µM
[4]
  GI50: 3.89 µM
  TGI: 24.3 µM
[5]
  GI50: 3.88 µM
  TGI: > 100 µM
[6]
  GI50: 3.76 µM
  TGI: 16.4 µM
[7]
  GI50: 13.5 µM
  TGI: 37.8 µM
[8]
  GI50: 4.48 µM
  TGI: > 100 µM
[9]
  GI50: 5.69 µM
  TGI: > 100 µM
[10]
  GI50: 2.09 µM
  TGI: 5.29 µM
[11]
  GI50: 3.02 µM
  TGI: 9.71 µM
[12]
  GI50: 3.9 µM
  TGI: 16.4 µM
[13]
  GI50: 3.07 µM
  TGI: 9.64 µM
[14]
  GI50: 2.59 µM
  TGI: 7.05 µM
[15]
  GI50: 1.92 µM
  TGI: 7.45 µM
[16]
  GI50: 3.78 µM
  TGI: > 100 µM
[17]
  GI50: 8.12 µM
  TGI: > 100 µM
[19]
  GI50: 5.32 µM
  TGI: 22.8 µM
[20]
  GI50: 5.15 µM
  TGI: > 100 µM
[21]
  GI50: 3.12 µM
  TGI: 12.1 µM
[22]
  GI50: 2.85 µM
  TGI: 10.7 µM
[23]
  GI50: 3 µM
  TGI: 20.9 µM
[24]
  GI50: 4.49 µM
  TGI: 53.7 µM
[25]
  GI50: 3.19 µM
  TGI: 20.5 µM
[26]
  GI50: 3.35 µM
  TGI: 36.5 µM
[27]
  GI50: 7.15 µM
  TGI: > 100 µM
[28]
  GI50: 2.66 µM
  TGI: > 100 µM
[29]
  GI50: 4.5 µM
  TGI: 25.4 µM
[30]
  GI50: 3.94 µM
  TGI: 18.3 µM
[31]
  GI50: 2.84 µM
  TGI: 8.71 µM
[32]
  GI50: 3.32 µM
  TGI: 19.3 µM
[33]
  GI50: 3.14 µM
  TGI: > 100 µM
[34]
  GI50: 4.55 µM
  TGI: 67.9 µM
[35]
  GI50: 3.32 µM
  TGI: > 100 µM
[36]
  GI50: 7.13 µM
  TGI: 21.3 µM
[37]
  GI50: 18.5 µM
  TGI: > 100 µM
[39]
  GI50: 3.72 µM
  TGI: 15.5 µM
[40]
  GI50: 2.37 µM
  TGI: 6.5 µM
[41]
  GI50: 5.47 µM
  TGI: 92.6 µM
[42]
  GI50: 5.51 µM
  TGI: 23.8 µM
[43]
  GI50: 3.17 µM
  TGI: 12.7 µM
[44]
  GI50: 4.16 µM
  TGI: 19.4 µM
[45]
  GI50: 2.69 µM
  TGI: 7.03 µM
[46]
  GI50: 3.36 µM
  TGI: 60.1 µM
[47]
  GI50: 4.91 µM
  TGI: 27.6 µM
[48]
  GI50: 3.08 µM
  TGI: > 100 µM
[49]
  GI50: 6.51 µM
  TGI: > 100 µM
[50]
  GI50: 4.92 µM
  TGI: 27.7 µM
[51]
  GI50: 2.59 µM
  TGI: 11 µM
[52]
  GI50: 5.72 µM
  TGI: 28.1 µM
[53]
  GI50: 2.97 µM
  TGI: 10.9 µM
[54]
  GI50: 1.67 µM
  TGI: 9.07 µM
[55]
  GI50: 3.78 µM
  TGI: 21.4 µM
[56]
  GI50: 4.81 µM
  TGI: 18.5 µM
[57]
  GI50: 2.74 µM
  TGI: 15.3 µM
[58]
  GI50: 8.8 µM
  TGI: 22.4 µM
